The values that follow are results of earlier work, collected in article PMC2803438 (Current Chemical Genomics, 2008).

Series [1] concerns the target Hsc70. Conditions: read-out: Kd, binding to Hsc70; moderate affinity.
The subject of series [2] is Hsc70. Conditions: read-out: IC50 for binding to Hsc70.

With `N=C(N)NCCCCCCC(=O)NC(O)C(=O)NCCCCNCCCN` (centres unmarked) [15-deoxyspergualin], at Hsc70 [1], the Kd (in general, the concentration at which binding is half-saturated) is 500 nM.
For NIVRKKK, the IC50 (in general, the midpoint of a concentration-inhibition curve) in the series with Hsc70 [2] was 2800 nM.
